Measurements taken from patent US8058427B2, “Coumarin compounds and their use for treating cancer” (National Health Research Institutes, priority 2008, dated 2011).

Test system: Human cervical carcinoma KB cells
Experiment: Growth inhibition assay, KB cells (MTS)
Assay type: cell-based
Settings: 72 h, read-out: IC50 (concentration causing 50% cell growth inhibition)
Procedure: Anticancer activities of the compounds of this invention were evaluated using a growth inhibition assay described in Kuo et al., Cancer Res. 2004, 64(13), 4621-4628.
Human cervical carcinoma KB cells were maintained in plastic dishes in DMEM medium supplemented with 10% fetal bovine serum. For in vitro treatment, tumor cells were seeded in […] of culture medium/well in 96-well plates to a final cell density of 6×10^3 cell/mL and incubated in a CO2 incubator at 37° C. for 24 h. The cells were treated with at least five different concentrations of a test compound, and incubated in a CO2 incubator at 37° C. for 72 h. The number of viable cells was estimated using MTS assay and absorbance was measured at 490 nm. For each test compound, dose-response curves were measured with at least five different drug concentrations, and the concentration causing 50% cell growth inhibition (IC50) compared with the control was calculated.

SMILES | IC50
Cc1cc(=O)oc2c1ccc1oc(C(=O)c3cccc(OCCO[Si](C)(C)C(C)(C)C)c3)c(-c3ccccc3)c12 [Compound 189] | 101 to 999 nM
CCCCCCCCCCc1c(C(=O)c2ccccc2)oc2ccc3c(C)cc(=O)oc3c12 [Compound 158] | 1000 to 10000 nM
Cc1cc(=O)oc2c1ccc1oc(C(=O)c3ccccc3C(F)(F)F)c(-c3ccccc3)c12 [Compound 35] | 1000 to 10000 nM
O=C(c1ccccc1)c1oc2ccc3c(C(F)(F)F)cc(=O)oc3c2c1-c1ccccc1 [Compound 11] | 101 to 999 nM
Cc1cc(=O)oc2c1ccc1oc(/C(=N/OCc3ccccc3)c3ccccc3)c(-c3ccccc3)c12 [Compound 175] | 101 to 999 nM
CC(=O)OCC1C(OCCOc2cccc(C(=O)c3oc4ccc5c(C)cc(=O)oc5c4c3-c3ccccc3)c2)OC(OC(C)=O)C(OC(C)=O)C1OC(C)=O (stereo not shown) [Compound 194] | 101 to 999 nM
Cc1cc(=O)oc2c1ccc1oc(C(=O)c3cccc(OCCOCCOCCO)c3)c(-c3ccccc3)c12 [Compound 177] | 101 to 999 nM
Cc1cc(=O)oc2c1ccc1oc(C(=O)c3cccc(OCCCCN(C)C)c3)c(-c3ccccc3)c12 [Compound 88] | 101 to 999 nM
Cc1cc(=O)oc2c1ccc1oc(C(=O)c3cccc(OCCCCN4CCCCC4)c3)c(-c3ccccc3)c12 [Compound 85] | 101 to 999 nM
Cc1cc(=O)oc2c1ccc1oc(C(=O)c3cccc(OCCCO[Si](C)(C)C(C)(C)C)c3)c(-c3ccccc3)c12 [Compound 190] | 101 to 999 nM
CCCCCCCCCCOc1cccc(C(=O)c2oc3ccc4c(C)cc(=O)oc4c3c2-c2ccccc2)c1 [Compound 244] | 101 to 999 nM
Cc1cc(=O)oc2c1ccc1oc(C(=O)c3ccc(-c4ccccc4)cc3)c(-c3ccccc3)c12 [Compound 52] | 1000 to 10000 nM
Cc1cc(=O)oc2c1ccc1oc(C(=O)c3ccccc3O)c(-c3ccccc3)c12 [Compound 204] | 101 to 999 nM
Cc1cc(=O)oc2c1ccc1oc(C(=O)c3ccc(Cl)cc3)c(-c3ccccc3)c12 [Compound 49] | 101 to 999 nM
Cc1cc(=O)oc2c1ccc1oc(C(=O)c3ccccc3)cc12 [Compound 153] | 101 to 999 nM
Cc1cc(=O)oc2c1ccc1oc(C(=O)c3ccc(Br)s3)c(-c3ccccc3)c12 [Compound 98] | 101 to 999 nM
Cc1cc(=O)oc2c1ccc1oc(C(=O)c3ccc4ccccc4c3)c(-c3ccc(Br)cc3)c12 [Compound 208] | 1000 to 10000 nM

SMILES | IC50
Cc1cc(=O)oc2c1ccc1oc(C(=O)c3ccc([N+](=O)[O-])cc3)c(-c3ccccc3)c12 [Compound 51] | 101 to 999 nM
CCCOc1cccc(C(=O)c2oc3ccc4c(C)cc(=O)oc4c3c2-c2ccc(Br)cc2)c1 [Compound 253] | 101 to 999 nM
Cc1cc(=O)oc2c1ccc1oc(C(=O)c3ccccc3)c(-c3cccc(Cl)c3)c12 [Compound 136] | 101 to 999 nM
Cc1cc(=O)oc2c1ccc1oc(C(=O)c3ccccc3)c(-c3ccccc3Cl)c12 [Compound 135] | 101 to 999 nM
Cc1cc(=O)oc2c1ccc1oc(C(=O)c3ccco3)c(-c3ccccc3)c12 [Compound 92] | 101 to 999 nM
Cc1cc2ccc3oc(C(=O)c4ccccc4)c(-c4ccccc4)c3c2oc1=O [Compound 3] | 101 to 999 nM
Cc1cc(=O)oc2c1ccc1oc(C(=O)c3ccc(N(C)C)cc3)c(-c3ccccc3)c12 [Compound 264] | 101 to 999 nM
Cc1cc(=O)oc2c1ccc1oc(C(=O)c3ccccc3)c(C3CCCCC3)c12 [Compound 165] | 101 to 999 nM
Cc1cc(=O)oc2c1ccc1oc(C(=O)c3cccn3C)c(-c3ccccc3)c12 [Compound 102] | 1000 to 10000 nM
O=C(c1ccccc1)c1oc2ccc3c4c(c(=O)oc3c2c1-c1ccccc1)CCCC4 [Compound 21] | 1000 to 10000 nM
CCCCCc1c(C(=O)c2ccccc2)oc2ccc3c(C)cc(=O)oc3c12 [Compound 156] | 1000 to 10000 nM
Cc1cc(=O)oc2c1ccc1oc(C(=O)c3cccc(C#N)c3)c(-c3ccccc3)c12 [Compound 42] | 101 to 999 nM
Cc1cc(=O)oc2c1ccc1oc(C(=O)c3cccc(OCCCCCCO[Si](C)(C)C(C)(C)C)c3)c(-c3ccccc3)c12 [Compound 193] | 101 to 999 nM
Cc1cc(=O)oc2c1ccc1oc(C(=O)c3ccc4ccccc4c3)c(-c3ccc(F)cc3)c12 [Compound 220] | 101 to 999 nM
COc1ccc(C(=O)c2oc3ccc4c(C)cc(=O)oc4c3c2-c2ccc(Br)cc2)cc1 [Compound 214] | 1000 to 10000 nM
Cc1cc(=O)oc2c1ccc1oc(Cc3ccccc3)c(-c3ccccc3)c12 [Compound 173] | 101 to 999 nM

Further lines, results first:

IC50 | SMILES
101 to 999 nM | CCN(CCO)CCCOc1cccc(C(=O)c2oc3ccc4c(C)cc(=O)oc4c3c2-c2ccccc2)c1 [Compound 251]
101 to 999 nM | COc1ccccc1C(=O)c1oc2ccc3c(C)cc(=O)oc3c2c1-c1ccc(Br)cc1 [Compound 219]
1000 to 10000 nM | Cc1c(Cc2ccccc2)c(=O)oc2c1ccc1oc(C(=O)c3ccccc3)c(-c3ccccc3)c12 [Compound 19]
1000 to 10000 nM | COc1ccc(C(=O)c2oc3ccc4c(C)cc(=O)oc4c3c2-c2ccc(Cl)cc2)cc1 [Compound 223]
1000 to 10000 nM | Cc1cc(=O)oc2c1ccc1oc(C(=O)c3cc(-c4ccc(Cl)cc4)no3)c(-c3ccccc3)c12 [Compound 112]
101 to 999 nM | CCCc1c(C(=O)c2ccccc2)oc2ccc3c(C)cc(=O)oc3c12 [Compound 155]
101 to 999 nM | Cc1cc(=O)oc2c1ccc1oc(C(=O)c3ccccc3)c(-c3ccco3)c12 [Compound 159]
101 to 999 nM | Cc1cc(=O)oc2c1ccc1oc(C(=O)c3ccccc3)c(/C=C/c3ccccc3)c12 [Compound 161]
101 to 999 nM | Cc1cc(=O)oc2c1ccc1oc(C(=O)c3cccc(OCCN[C@@]45C[C@@H]6C[C@@H](C[C@@](O)(C6)C4)C5)c3)c(-c3ccccc3)c12 [Compound 183]
101 to 999 nM | CCCCCCc1c(C(=O)c2ccccc2)oc2ccc3c(C)cc(=O)oc3c12 [Compound 157]
101 to 999 nM | Cc1cc(=O)oc2c1ccc1oc(C(=O)c3ccccc3)c(-c3cccc(F)c3)c12 [Compound 133]
101 to 999 nM | Cc1cc(=O)oc2c1ccc1oc(C(=O)c3ccccc3)c(-c3cccc4ccccc34)c12 [Compound 206]
1000 to 10000 nM | Cc1cc(=O)oc2c1ccc1oc(C(=O)c3ccc(OCCN4CCOCC4)cc3)c(-c3ccccc3)c12 [Compound 265]
1000 to 10000 nM | Cc1cc(=O)oc2c1ccc1oc(C(=O)c3ccc(OCCN(C)C)cc3)c(-c3ccccc3)c12 [Compound 266]
101 to 999 nM | Cc1ccc(C(=O)c2oc3ccc4c(C)cc(=O)oc4c3c2-c2ccccc2)c(C)c1 [Compound 62]
1000 to 10000 nM | O=C(c1ccccc1)c1oc2ccc3c4ccccc4c(=O)oc3c2c1-c1ccccc1 [Compound 22]
101 to 999 nM | Cc1cc(=O)oc2c1ccc1oc(C(=O)c3cccc(C(F)(F)F)c3)c(-c3ccccc3)c12 [Compound 36]
1000 to 10000 nM | Cc1cc(=O)oc2c1ccc1oc(C(=O)c3ccc(C(F)(F)F)cc3)c(-c3ccccc3)c12 [Compound 37]
101 to 999 nM | O=Cc1cc(=O)oc2c1ccc1oc(C(=O)c3ccccc3)c(-c3ccccc3)c12 [Compound 10]
101 to 999 nM | Cc1cc(=O)oc2c1ccc1oc(C(=O)c3ccccc3)c(-c3ccc(Cl)cc3)c12 [Compound 137]

IC50 | SMILES
101 to 999 nM | Cc1ccc(C(=O)c2oc3ccc4c(C)cc(=O)oc4c3c2-c2ccccc2)cc1 [Compound 41]
101 to 999 nM | Cc1cc(=O)oc2c1ccc1oc(C(O)c3ccccc3)cc12 (stereo not shown) [Compound 226]
101 to 999 nM | Cc1cc(=O)oc2c1ccc1oc(C(=O)c3cccc(OCCCOC4OC(CO)C(O)C(O)C4O)c3)c(-c3ccccc3)c12 (stereo not shown) [Compound 197]
1000 to 10000 nM | Cc1cc(=O)oc2c1ccc1oc(C(=O)c3ccc(Br)cc3)c(-c3ccc(Br)cc3)c12 [Compound 211]
101 to 999 nM | Cc1cc(=O)oc2c1ccc1oc(C(=O)c3cccc([N+](=O)[O-])c3)c(-c3ccccc3)c12 [Compound 66]
101 to 999 nM | Cc1cc(=O)oc2c1ccc1oc(C(=O)c3cccc(Cl)c3)c(-c3ccc(Br)cc3)c12 [Compound 217]
1000 to 10000 nM | Cc1cc(=O)oc2c1ccc1oc(C(=O)C3CCCCC3)c(-c3ccccc3)c12 [Compound 127]
101 to 999 nM | Cc1cc(=O)oc2c1ccc1oc(C(=O)c3ccccc3)c(C)c12 [Compound 154]
101 to 999 nM | Cc1cc(=O)oc2c1ccc1oc(C(=O)c3ccccc3)c(-c3ccccc3Br)c12 [Compound 138]
1000 to 10000 nM | Cc1cc(=O)oc2c1cc(C)c1oc(C(=O)c3ccccc3)c(-c3ccccc3)c12 [Compound 8]
1000 to 10000 nM | CC(=O)c1oc2ccc3c(C)cc(=O)oc3c2c1-c1ccccc1 [Compound 119]
101 to 999 nM | Cc1cc(=O)oc2c1ccc1oc(C(=O)c3ccc(OC(F)(F)F)cc3)c(-c3ccccc3)c12 [Compound 38]
101 to 999 nM | Cc1cc(=O)oc2c1ccc1oc(C(=O)c3ccc(Cl)c(Cl)c3)c(-c3ccccc3)c12 [Compound 58]
1000 to 10000 nM | Cc1cc(=O)oc2c1ccc1oc(C(=O)c3ccc(Cl)cc3)c(-c3ccc(Br)cc3)c12 [Compound 210]
101 to 999 nM | Cc1ccc(C(=O)c2oc3ccc4c(C)cc(=O)oc4c3c2-c2ccccc2)o1 [Compound 94]
101 to 999 nM | Cc1cc(=O)oc2c1ccc1oc(C(=O)c3cccc(OCCCN4CCN(C)CC4)c3)c(-c3ccccc3)c12 [Compound 90]
101 to 999 nM | Cc1cc(=O)oc2c1ccc1oc(C(=O)c3cccc(OCCO)c3)c(-c3ccccc3)c12 [Compound 184]
101 to 999 nM | Cc1cc(=O)oc2c1ccc1oc(C(=O)c3ccc(F)cc3)c(-c3ccc(Br)cc3)c12 [Compound 209]
1000 to 10000 nM | CO/N=C(\c1ccccc1)c1oc2ccc3c(C)cc(=O)oc3c2c1-c1ccccc1 [Compound 176]
1000 to 10000 nM | Cc1cc(=O)oc2c1ccc1oc(C(=O)c3cc(Cl)sc3Cl)c(-c3ccccc3)c12 [Compound 97]
